Measurements published in patent US10323038B2, “Pyrazole compounds and methods of making and using same” (ABIDE THERAPEUTICS, INC., priority 2015, dated 2019).

What was measured:
MAGL = MAGL (Mus musculus (Mouse), UniProt O35678); test: In vitro competitive activity-based protein profiling, MAGL (mouse); assay type: biochemical; settings: for inhibition at 1 µM: read-out: MAGL % inh. 1 μM (mouse)
Procedure, shortened: (§1)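 Competitive ABPP; proteome 1.0 mg/mL total protein; mouse = brain membranes or cell lysates, human = prefrontal cortex or cell membranes. Inhibitor preinc 30 min, 37° C; FP-Rh/HT-01 (50 μM DMSO stock) 30 min, 37° C; SDS-PAGE, in-gel fluorescence of MAGL/FAAH bands.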

FAAH = FAAH (Mus musculus (Mouse), UniProt O08914); test: In vitro competitive activity-based protein profiling, FAAH (mouse); assay type: biochemical; settings: for inhibition at 1 µM: read-out: FAAH % inh. 1 μM (mouse)
Procedure, shortened: as §1

MAGL, sequence (O35678 whole entry): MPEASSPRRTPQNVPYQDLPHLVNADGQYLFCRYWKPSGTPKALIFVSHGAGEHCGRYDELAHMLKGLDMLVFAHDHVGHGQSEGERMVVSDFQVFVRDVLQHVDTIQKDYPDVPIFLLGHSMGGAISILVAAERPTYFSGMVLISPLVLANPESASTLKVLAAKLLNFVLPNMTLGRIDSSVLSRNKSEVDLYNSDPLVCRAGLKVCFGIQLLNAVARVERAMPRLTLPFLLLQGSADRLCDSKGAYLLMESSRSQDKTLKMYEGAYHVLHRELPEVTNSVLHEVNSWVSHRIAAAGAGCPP
FAAH, sequence (O08914 whole entry): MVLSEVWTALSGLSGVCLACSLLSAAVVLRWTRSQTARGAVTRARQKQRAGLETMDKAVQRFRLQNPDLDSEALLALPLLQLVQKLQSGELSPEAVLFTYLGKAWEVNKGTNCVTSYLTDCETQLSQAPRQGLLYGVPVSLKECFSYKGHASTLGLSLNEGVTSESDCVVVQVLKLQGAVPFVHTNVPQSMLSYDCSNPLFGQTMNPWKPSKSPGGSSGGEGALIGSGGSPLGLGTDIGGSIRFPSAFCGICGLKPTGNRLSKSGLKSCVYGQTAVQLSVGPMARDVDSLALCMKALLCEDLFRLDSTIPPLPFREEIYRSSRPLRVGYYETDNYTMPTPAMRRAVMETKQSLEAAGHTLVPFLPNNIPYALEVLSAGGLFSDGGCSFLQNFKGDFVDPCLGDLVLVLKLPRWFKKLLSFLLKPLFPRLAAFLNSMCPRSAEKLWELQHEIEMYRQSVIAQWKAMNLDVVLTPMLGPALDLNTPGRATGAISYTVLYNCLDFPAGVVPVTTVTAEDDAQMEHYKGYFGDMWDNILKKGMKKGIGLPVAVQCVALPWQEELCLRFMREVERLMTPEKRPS

inhibition at 1 µM (MAGL)	inhibition at 1 µM (FAAH)	IC50 (MAGL)	IC50 (FAAH)	Compound
≥ 75%	0 to 25%	–	–	CC(=O)N(C)c1cnn(C(=O)N2C[C@H]3C[C@H](N(Cc4cccc(Cl)c4)C(C)=O)C[C@H]3C2)c1 [Example 173, N-(3-chlorobenzyl)-N-(trans-2-(4-(N-methylacetamido)-1H-pyrazole-1-carbonyl)octahydrocyclopenta[c]pyrrol-5-yl)acetamide]
≥ 75%	≥ 75%	100 to 1000 nM	100 to 1000 nM	CC(=O)N(C)c1cnn(C(=O)N2CCN(Cc3ccccc3C)CC2)c1 [Example 212, N-methyl-N-(1-(4-(2-methylbenzyl)piperazine-1-carbonyl)-1H-pyrazol-4-yl)acetamide]
≥ 75%	≥ 75%	≤ 100 nM	≤ 100 nM	CC(=O)N(C)c1cnn(C(=O)N2CC3CN(Cc4ccccc4C(F)(F)F)CC3C2)c1 (centres unmarked) [Example 96, N-methyl-N-(1-(5-(2-(trifluoromethyl)benzyl)octahydropyrrolo[3,4-c]pyrrole-2-carbonyl)-1H-pyrazol-4-yl)acetamide]
≥ 75%	25 to 50%	–	–	CC(=O)N(C)c1cnn(C(=O)N2CCN(Cc3ccccc3N3CCCC3)CC2)c1 [Example 215, N-methyl-N-(1-(4-(2-(pyrrolidin-1-yl)benzyl)piperazine-1-carbonyl)-1H-pyrazol-4-yl)acetamide]
25 to 50%	≥ 75%	1000 to 10000 nM	100 to 1000 nM	CC(=O)N(C)c1cnn(C(=O)N2CC3(CCN(Cc4ccc(N5CCOCC5)cc4Cl)CC3)C2)c1 [Example 22, N-(1-(7-(2-chloro-4-morpholinobenzyl)-2,7-diazaspiro[3.5]nonane-2-carbonyl)-1H-pyrazol-4-yl)-N-methylacetamide]
≥ 75%	≥ 75%	–	–	CS(=O)(=O)Nc1cnn(C(=O)N2CCN(Cc3cc(Cl)cc(C(F)(F)F)c3)CC2)c1 [Example 294, N-(1-(4-(3-chloro-5-(trifluoromethyl)benzyl)piperazine-1-carbonyl)-1H-pyrazol-4-yl)methanesulfonamide]
≥ 75%	≥ 75%	–	100 to 1000 nM	CC(=O)N(C)c1cnn(C(=O)N2CCN(Cc3ccc(Cl)c(Cl)c3)CC2)c1 [Example 196, N-(1-(4-(3,4-dichlorobenzyl)piperazine-1-carbonyl)-1H-pyrazol-4-yl)-N-methylacetamide]
≥ 75%	≥ 75%	–	–	CC(=O)N(C)c1cnn(C(=O)N2CC3CN(Cc4ccc(N5CC6CCC(C5)O6)cc4C(F)(F)F)CC3C2)c1 (centres unmarked) [Example 101, N-(1-(5-(4-(8-oxa-3-azabicyclo[3.2.1]octan-3-yl)-2-(trifluoromethyl)benzyl)octahydropyrrolo[3,4-c]pyrrole-2-carbonyl)-1H-pyrazol-4-yl)-N-methylacetamide]
25 to 50%	≥ 75%	–	–	CS(=O)(=O)Nc1cnn(C(=O)N2CCN(Cc3ccc(-c4ccc(C(N)=O)nc4)cc3C(F)(F)F)CC2)c1 [Example 302]
≥ 75%	≥ 75%	≤ 100 nM	≤ 100 nM	CC(=O)N(C)c1cnn(C(=O)N2CC3CN(Cc4cccc(Oc5ccccc5Cl)c4)CC3C2)c1 (centres unmarked) [Example 240, N-(1-(5-(3-(2-chlorophenoxy)benzyl)octahydropyrrolo [3,4-c]pyrrole-2-carbonyl)-1H-pyrazol-4-yl)-N-methylacetamide]
≥ 75%	≥ 75%	≤ 100 nM	≤ 100 nM	CC(=O)N(C)c1cnn(C(=O)N2CC3CN(Cc4ccc(N5CCOCC5)cc4C(F)(F)F)CC3C2)c1 (centres unmarked) [Example 131, N-methyl-N-(1-(5-(4-morpholino-2-(trifluoromethyl)benzyl)octahydropyrrolo[3,4-c]pyrrole-2-carbonyl)-1H-pyrazol-4-yl)acetamide]
≥ 75%	≥ 75%	≤ 100 nM	≤ 100 nM	CC(=O)N(C)c1cnn(C(=O)N2CC3CN(Cc4cccc(Oc5ccccc5)c4)CC3C2)c1 (centres unmarked) [Example 234, N-methyl-N-(1-(5-(3-phenoxybenzyl)octahydropyrrolo[3,4-c]pyrrole-2-carbonyl)-1H-pyrazol-4-yl)acetamide]
≥ 75%	≥ 75%	–	–	CC(=O)N(C)c1cnn(C(=O)N2CC3CN(Cc4cc(Cl)cc(N5CCC6(CCOCC6)C5)c4)CC3C2)c1 (centres unmarked) [Example 247, N-(1-(5-(3-chloro-5-(8-oxa-2-azaspiro[4.5]decan-2-yl)benzyl)octahydropyrrolo[3,4-c]pyrrole-2-carbonyl)-1H-pyrazol-4-yl)-N-methylacetamide]
≥ 75%	≥ 75%	≤ 100 nM	≤ 100 nM	CC(=O)N(C)c1cnn(C(=O)N2C[C@H]3C[C@@H](N(C)Cc4cc(Cl)ccc4C(F)(F)F)C[C@H]3C2)c1 [Example 161, N-(1-(cis-5-((5-chloro-2-(trifluoromethyl)benzyl)(methyl)amino)octahydrocyclopenta[c]pyrrole-2-carbonyl)-1H-pyrazol-4-yl)-N-methylacetamide]
≥ 75%	≥ 75%	–	–	CC(=O)N(C)c1cnn(C(=O)N2CC3CN(Cc4ccc(N5CCOCC5)cc4C)CC3C2)c1 (centres unmarked) [Example 17, N-methyl-N-(1-(5-(2-methyl-4-morpholinobenzyl)octahydropyrrolo[3,4-c]pyrrole-2-carbonyl)-1H-pyrazol-4-yl)acetamide]
≥ 75%	≥ 75%	–	–	CN(Cc1cc(Cl)ccc1C(F)(F)F)[C@H]1C[C@@H]2CN(C(=O)n3cc(NS(C)(=O)=O)cn3)C[C@@H]2C1 [Example 278, N-(1-[[trans-5-([[5-chloro-2-(trifluoromethyl)phenyl]methyl](methyl)amino)-octahydrocyclopenta[c]pyrrol-2-yl)carbonyl]-1H-pyrazol-4-yl)methanesulfonamide]
≥ 75%	≥ 75%	–	–	CC(=O)N(C)c1cnn(C(=O)N2CCC3(CC2)CN(Cc2cccc(N4CCCC4)c2)C3)c1 [Example 30, N-methyl-N-(1-(2-(3-(pyrrolidin-1-yl)benzyl)-2,7-diazaspiro[3.5]nonane-7-carbonyl)-1H-pyrazol-4-yl)acetamide]
≥ 75%	25 to 50%	–	–	CC(=O)N(C)c1cnn(C(=O)N2C[C@H]3C[C@@H](N(Cc4ccc(Cl)cc4)C(C)=O)C[C@H]3C2)c1 [Example 171, N-(4-chlorobenzyl)-N-(cis-2-(4-(N-methylacetamido)-1H-pyrazole-1-carbonyl)octahydrocyclopenta[c]pyrrol-5-yl)acetamide]
≥ 75%	≥ 75%	–	–	CC(=O)N(C)c1cnn(C(=O)N2CCC3(CC2)CN(Cc2cccc(F)c2)C3)c1 [Example 35, N-(1-(2-(3-fluorobenzyl)-2,7-diazaspiro[3.5]nonane-7-carbonyl)-1H-pyrazol-4-yl)-N-methylacetamide]
≥ 75%	≥ 75%	≤ 100 nM	≤ 100 nM	CC(=O)N(C)c1cnn(C(=O)N2CCN(Cc3cccc(C(F)(F)F)c3)CC2)c1 [Example 209, N-methyl-N-(1-(4-(3-(trifluoromethyl)benzyl)piperazine-1-carbonyl)-1H-pyrazol-4-yl)acetamide]
≥ 75%	≥ 75%	≤ 100 nM	≤ 100 nM	CC(=O)N(C)c1cnn(C(=O)N2CCC3(CC2)CN(Cc2ccccc2C(F)(F)F)C3)c1 [Example 44, N-methyl-N-(1-(2-(2-(trifluoromethyl)benzyl)-2,7-diazaspiro[3.5]nonane-7-carbonyl)-1H-pyrazol-4-yl)acetamide]
≥ 75%	≥ 75%	≤ 100 nM	≤ 100 nM	CC(=O)N(C)c1cnn(C(=O)N2CC3CN(Cc4ccc(Oc5ccccc5)cc4)CC3C2)c1 (centres unmarked) [Example 241, N-methyl-N-(1-(5-(4-phenoxybenzyl)octahydropyrrolo[3,4-c]pyrrole-2-carbonyl)-1H-pyrazol-4-yl)acetamide]
50 to 75%	≥ 75%	–	–	CC(=O)N(C)c1cnn(C(=O)N2CC3(CCN(Cc4cccc(C(F)(F)F)c4)CC3)C2)c1 [Example 88, N-methyl-N-(1-(7-(3-(trifluoromethyl)benzyl)-2,7-diazaspiro[3.5]nonane-2-carbonyl)-1H-pyrazol-4-yl)acetamide]
≥ 75%	≥ 75%	–	–	CC(=O)N(C)c1cnn(C(=O)N2CC3CN(Cc4cc(Cl)ccc4C(F)(F)F)CC3C2)c1 (centres unmarked) [Example 104, N-(1-(5-(5-chloro-2-(trifluoromethyl)benzyl)octahydropyrrolo[3,4-c]pyrrole-2-carbonyl)-1H-pyrazol-4-yl)-N-methylacetamide]
≥ 75%	≥ 75%	100 to 1000 nM	100 to 1000 nM	CC(=O)N(C)c1cnn(C(=O)N2CCN(Cc3ccc(N4CCOCC4)cc3C)CC2)c1 [Example 204, N-methyl-N-(1-(4-(2-methyl-4-morpholinobenzyl)piperazine-1-carbonyl)-1H-pyrazol-4-yl)acetamide]
≥ 75%	≥ 75%	–	–	CC(=O)N(C)c1cnn(C(=O)N2C[C@H]3C[C@H](N(C)Cc4ccc(N5CCCC5)cc4C(F)(F)F)C[C@H]3C2)c1 [Example 158, N-methyl-N-(1-(trans-5-(methyl(4-(pyrrolidin-1-yl)-2-(trifluoromethyl)benzyl)amino)octahydrocyclopenta[c]pyrrole-2-carbonyl)-1H-pyrazol-4-yl)acetamide]
50 to 75%	0 to 25%	–	–	CC(=O)N(C)c1cnn(C(=O)N2CCC3(CC2)CN(Cc2ccc(CN4CCOCC4)cc2)C3)c1 [Example 233, N-methyl-N-(1-(2-(4-(morpholinomethyl)benzyl)-2,7-diazaspiro[3.5]nonane-7-carbonyl)-1H-pyrazol-4-yl)acetamide]
